In patent publication US20080051419A1, “AMINE DERIVATIVES USEFUL AS ANTICANCER AGENTS” (PFIZER INC., priority 2006, published 2008):
pIC50: −log10 of the molar value. Where two headings read alike, the source gives them in different places.

Molecular target: T1, Akt1 (Homo sapiens, UniProt P31749, S473D)
T1 construct: The version of Akt used in these studies lacks the pleckstrin homology (PH) domain
Assay: Akt1 kinase assay, fluorescence polarization (IMAP)
Type: biochemical
Settings: for pIC50: Table 1, concentration bins, read-out: Concentration Range at which exemplary compounds of formula I inhibit Akt kinase activity; for IC50: read-out: Avg Akt kinase, μM (50% inhibition)
Procedure, shortened: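 His-tagged Akt1 lacking the PH domain, Thr308-prephosphorylated, 1.5 ng per reaction, with 4 μM ATP and 40 nM TAMRA-Crosstide (solution concentrations) in Tris pH 7.5/MgCl2/DTT buffer. Incubated 30 min at ambient temperature; IMAP fluorescence polarization read (544/615 nm). IC50 after subtraction of no-enzyme background.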

[1] = average Akt kinase activity (IC50)

T1 sequence (P31749 118-480 S473D limits assumed, species assumed): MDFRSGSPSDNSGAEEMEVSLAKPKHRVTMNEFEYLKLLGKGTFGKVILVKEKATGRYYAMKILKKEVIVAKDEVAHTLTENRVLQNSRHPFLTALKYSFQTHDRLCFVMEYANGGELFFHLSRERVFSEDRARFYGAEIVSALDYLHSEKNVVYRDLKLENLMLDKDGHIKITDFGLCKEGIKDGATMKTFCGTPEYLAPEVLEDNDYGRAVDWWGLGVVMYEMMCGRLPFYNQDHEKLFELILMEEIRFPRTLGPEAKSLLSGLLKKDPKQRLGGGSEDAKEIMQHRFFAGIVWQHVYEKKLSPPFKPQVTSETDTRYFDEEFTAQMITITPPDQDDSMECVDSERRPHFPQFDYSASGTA

| Compound | pIC50 | IC50 (Table 3) | IC50 [1] | IC50 (Table 4) |
| --- | --- | --- | --- | --- |
| Cc1c[nH]c2ncnc(N3CCC(N)(CN4CCCc5ccccc54)C3)c12 (centres unmarked) [Example 49, 3-(3,4-dihydroquinolin-1(2H)-ylmethyl)-1-(5-methyl-7H-pyrrolo[2,3-d]pyrimidin-4-yl)pyrrolidin-3-amine] | 5.00 to 7.00 | 0.131 µM | – | – |
| N#Cc1c[nH]c2ncnc(N3CCC(N)(CNc4ccc(Cl)cc4)C3)c12 (centres unmarked) [Example 4, 4-{3-amino-3-[(4-chloro-phenylamino)-methyl]-pyrrolidin-1-yl}-7H-pyrrolo[2,3-d]pyrimidine-5-carbonitrile] | 7.00 to 8.00 | 0.041 µM | – | – |
| Cc1c[nH]c2ncnc(N3CCC(N)(CNc4ccc(Cl)nn4)C3)c12 (centres unmarked) [Example 52, N-{[3-amino-1-(5-methyl-7H-pyrrolo[2,3-d]pyrimidin-4-yl)pyrrolidin-3-yl]methyl}-6-chloropyridazin-3-amine] | 7.00 to 8.00 | 0.082 µM | – | – |
| Cc1c[nH]c2ncnc(N3CCC(N)(CNc4ccccc4N4CCCCC4)C3)c12 (centres unmarked) [Example 24, 1-(5-methyl-7H-pyrrolo[2,3-d]pyrimidin-4-yl)-3-{[(2-piperidin-1-ylphenyl)amino]methyl}pyrrolidin-3-amine] | 7.00 to 8.00 | 0.0108 µM | – | – |
| Cc1c[nH]c2ncnc(N3CC[C@@](N)(COc4cccc(C(F)(F)F)c4)C3)c12 [Example 62] | – | – | – | 2.69 µM |
| Cc1c[nH]c2ncnc(N3CCC(N)(CNc4cccc(OC(F)(F)F)c4)C3)c12 (centres unmarked) [Example 25, 1-(5-methyl-7H-pyrrolo[2,3-d]pyrimidin-4-yl)-3-({[3-(trifluoromethoxy)phenyl]amino}methyl)pyrrolidin-3-amine] | 7.00 to 8.00 | 0.0145 µM | – | – |
| N[C@]1(CNC(=O)c2ccccc2)CCN(c2ncnc3[nH]cc(Cl)c23)C1 [Example 108, N-{[(3S)-3-amino-1-(5-chloro-7H-pyrrolo[2,3-d]pyrimidin-4-yl)pyrrolidin-3-yl]methyl}benzamide] | 8.00 to 8.60 | – | 0.00251 µM | – |
| CCc1c[nH]c2ncnc(N3CC[C@@](N)(CNC(=O)c4cc(C)on4)C3)c12 [Example 91] | 8.00 to 8.60 | – | 0.00392 µM | – |

The remaining lines, values ahead:

| pIC50 | IC50 (Table 3) | IC50 [1] | IC50 (Table 4) | Compound |
| --- | --- | --- | --- | --- |
| 8.00 to 8.60 | – | 0.00487 µM | – | CCc1c[nH]c2ncnc(N3CC[C@](N)(CNC(=O)c4ccc(Cl)cc4F)C3)c12 [Example 103, N-{[(3S)-3-amino-1-(5-ethyl-7H-pyrrolo[2,3-d]pyrimidin-4-yl)pyrrolidin-3-yl]methyl}-4-chloro-2-fluorobenzamide] |
| 7.00 to 8.00 | – | 0.0199 µM | – | Cc1c[nH]c2ncnc(N3CC[C@](N)(CNC(=O)c4c(F)cccc4F)C3)c12 [Example 126, N-{[(3S)-3-amino-1-(5-methyl-7H-pyrrolo[2,3-d]pyrimidin-4-yl)pyrrolidin-3-yl]methyl}-2,6-difluorobenzamide] |
| 8.00 to 8.60 | 0.00952 µM | – | – | Cc1c(F)cccc1NCC1(N)CCN(c2ncnc3[nH]cc(C)c23)C1 (centres unmarked) [Example 28, 3-{[(3-fluoro-2-methylphenyl)amino]methyl}-1-(5-methyl-7H-pyrrolo[2,3-d]pyrimidin-4-yl)pyrrolidin-3-amine] |
| 8.60 to 9.60 | 0.002 µM | – | – | Cc1c[nH]c2ncnc(N3CC[C@](N)(CNc4cccc(C(F)(F)F)c4F)C3)c12 [Example 36, (3S)-3-({[2-fluoro-3-(trifluoromethyl)phenyl]amino}-methyl)-1-(5-methyl-7H-pyrrolo[2,3-d]pyrimidin-4-yl)pyrrolidin-3-amine] |
| 5.00 to 7.00 | – | 0.185 µM | – | Cc1cccc(NC(=O)NCC2(N)CCN(c3ncnc4[nH]cc(C)c34)C2)c1C (centres unmarked) [Example 75, 1-{[3-amino-1-(5-methyl-7H-pyrrolo[2,3-d]pyrimidin-4-yl)pyrrolidin-3-yl]methyl}-3-(2,3-dimethylphenyl)urea] |
| 8.00 to 8.60 | – | 0.00771 µM | – | N#Cc1c[nH]c2ncnc(N3CC[C@](N)(CNC(=O)c4ccc(F)cc4F)C3)c12 [Example 96, N-{[(3S)-3-amino-1-(5-cyano-7H-pyrrolo[2,3-d]pyrimidin-4-yl)pyrrolidin-3-yl]methyl}-2,4-difluorobenzamide] |
| 7.00 to 8.00 | – | 0.0124 µM | – | CCc1c[nH]c2ncnc(N3CC[C@](N)(CNC(=O)c4cccc(C)c4Cl)C3)c12 [Example 118] |
